Measurements published in PMC6260965 (Structure (London, England : 1993), 2018).
Read-outs that look alike come from different tables or passages of the source.

How the values were obtained:
[1] = system: GT3 double substitution variant Y56H/Q168R; conditions: GT3 Y56H/Q168R selected in vitro; ref Ng et al., 2017; cited from earlier work
[2] = system: NS3/4A protease D168A; assay: biochemical; format: biochemical, HCV; conditions: D168A relative to WT protease
[3] = target: NS3/4A protease D168A (Hepatitis C virus genotype 1a, UniProt P27958, D1194A); assay: biochemical; format: biochemical, HCV
[4] = system: NS3/4A protease Y56H/D168A versus sum of Y56H and D168A; assay: Double mutant cycle analysis from inhibition constants; conditions: calculated from measured Ki; negative coupling
[5] = target: NS3/4A protease Y56H/D168A (Hepatitis C virus genotype 1a, UniProt P27958, D1194A/Y1082H); assay: Enzyme inhibition assay, Y56H/D168A protease; format: biochemical, HCV
[6] = system: NS3/4A protease Y56H/D168A; assay: Enzyme inhibition assay, Y56H/D168A protease; format: biochemical, HCV; conditions: for loss in potency in enzyme inhibition assays: Y56H/D168A relative to WT protease
[7] = target: NS3/4A protease Y56H (Hepatitis C virus genotype 1a, UniProt P27958, Y1082H); assay: Enzyme inhibition assay, Y56H protease; format: biochemical, HCV
[8] = system: HCV Con1 (genotype 1b) reporter replicon, H77 NS3 protease region with Y56H/D168A; assay: Cell-based drug susceptibility; conditions: Y56H/D168A compared to WT
[9] = system: HCV Con1 (genotype 1b) reporter replicon, H77 NS3 protease region with D168A; assay: Cell-based drug susceptibility; conditions: D168A compared to WT

SMILES | potency loss in enzyme inhibition assays [2] [fold] | difference in ΔΔG for the double mutant compared to sum of the single mutants [4] | loss in potency in enzyme inhibition assays [6] | lower potency in replicon assays [8] [fold] | other results
CC(C)(C)[C@@H]1NC(=O)O[C@@H]2CCC[C@H]2OC/C=C/C(F)(F)c2nc3ccccc3nc2O[C@@H]2C[C@@H](C(=O)N[C@]3(C(=O)NS(=O)(=O)C4(C)CC4)C[C@H]3C(F)F)N(C2)C1=O [glecaprevir] |  |  |  |  | loss in potency [1]: ~1400 fold
CC(C)(C)OC(=O)N[C@H]1CCCCC/C=C\[C@@H]2C[C@@]2(C(=O)NS(=O)(=O)C2CC2)NC(=O)[C@@H]2C[C@@H](OC(=O)N3Cc4cccc(F)c4C3)CN2C1=O [danoprevir] | 200 | ~ 0.06 kcal/mol | 500 fold |  | Ki [3]: 199 nM; Ki [5]: 520 nM; additional reduction in potency with Y56H ([6]; Y56H/D168A relative to D168A, enzyme inhibition): 2.5 fold; Ki [7]: 3 nM
C=C[C@@H]1C[C@]1(NC(=O)[C@@H]1C[C@@H]2CN1C(=O)[C@H](C(C)(C)C)NC(=O)O[C@@H]1C[C@H]1CCCCCc1nc3ccc(OC)cc3nc1O2)C(=O)NS(=O)(=O)C1CC1 [grazoprevir] | > 200 | 1 to 2 kcal/mol | 2500 fold | 1923 | potency loss in replicon assays [9]: over 100 fold
Cc1cnc(C(=O)N[C@H]2CCCCC/C=C\[C@@H]3C[C@@]3(C(=O)NS(=O)(=O)C3CC3)NC(=O)[C@@H]3C[C@@H](Oc4nc5ccccc5c5ccccc45)CN3C2=O)cn1 [paritaprevir] |  | 1 to 2 kcal/mol | 8500 fold | 2941 | 
CCc1nc2ccc(OC)cc2nc1O[C@@H]1C[C@H]2C(=O)N[C@]3(C(=O)NS(=O)(=O)C4CC4)C[C@H]3/C=C\CCCCC[C@H](NC(=O)OC(C)(C)C)C(=O)N2C1 [5172-mcP1P3] |  |  | 200–400 fold |  | Ki ([3]; read-out: inhibition constant (Ki), D168A variant): 82.4 nM
